# From PubChem BioAssay AID179 (DTP/NCI, 2004)
# Calls of active or inactive are those of the source.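 Rule for the calls: active = compounds giving half or more protection of infected cells from virus-caused growth loss, again on retest; inactive = the rest.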 *1 amine or outer side, *2 acyl side, *3 side chain or, on linkers, in order; H or OH if unused. Where a SMILES comes first, the peptide text is derived from it. CO = O=C([*:1])[*:2]
# Test system: CEM cells HIV-1 protection, formazan growth assay
# Test: NCI AIDS Antiviral Assay
# Settings: for IC50: measured here: growth of uninfected CEM cells
# Description: The ability of compounds to protect human CEM cells from HIV-1 infection is measured as a screen for new compounds capable of inhibiting the HIV virus. Five concentrations of drug were tested on uninfected and infected cells and cell growth was measured using a soluble formazan assay. […] Compounds that provided at least 50% protection were retested. Compounds that provided at least 50% protection on retest were listed as moderately active. Compounds that reproducibly provided 100% protection were listed as confirmed active. […] Note that the inability to provide protection could be due to toxicity.
SMILES,EC50,IC50,outcome
Cc1cc(NS(=O)(=O)c2ccc(NC(NC(=O)OC(C)C)(C(F)(F)F)C(F)(F)F)cc2)nc(C)n1,> 200 µM,> 200 µM,
CC(=O)n1nnc2ccc([N+](=O)[O-])cc21,> 34.7 µM,> 34.7 µM,
COc1c(O)cc2oc(-c3ccc(O)cc3)cc(=O)c2c1O,> 148 µM,35.5 µM,
Cn1c(N)c(Cc2ccc(Cl)cc2)c(=O)[nH]c1=O,> 200 µM,> 200 µM,
Cc1ccccc1C(C#N)C(=O)C(=O)Nc1cccc(Cl)c1 (stereo unspecified),> 417 µM,> 417 µM,
CCOC(=O)C(N)CSC(=O)NC (stereo unspecified),> 1020 µM,87.1 µM,
O=C(Nc1ccc(Cl)cc1C(=O)O)c1ccc([N+](=O)[O-])cc1,,,inactive
Oc1ccccc1-c1nnc2sc3c(Cl)c4nn5c(-c6ccccc6O)nnc5sc4c(Cl)c3nn12,> 200 µM,36.3 µM,
[N-]=[N+]=Nc1c([N+](=O)[O-])c(Cl)nc2ccccc12,> 20 µM,10 µM,
CC(C)(NC1=NCCO1)c1ccccc1,> 200 µM,> 200 µM,
COC(=O)[C@H](Cc1ccccc1)NC(=O)N[C@@H](C)C(=O)N[C@H](C(=O)N[C@H](C=O)Cc1ccccc1)C(C)C ({OMe-Phe-CO}-Ala-Val-Phe-aldehyde),> 200 µM,4.79 µM,
COCOc1cc(C)c(C(=O)Oc2cc(C)c(C(=O)OC)c(OCOC)c2C)c(OCOC)c1C=O,> 200 µM,26.9 µM,
COCC(C)(C)N=CN1CCc2cc(OC)c(OC)cc2C1,> 813 µM,> 813 µM,
C/C(CC(O)(C(F)(F)F)C(F)(F)F)=N/Nc1ccc([N+](=O)[O-])cc1[N+](=O)[O-],> 200 µM,1.41 µM,
O=c1[nH]/c(=C/c2ccc3c(c2)OCO3)c(=O)[nH]/c1=C/c1ccc2c(c1)OCO2,,,inactive
COC(=O)c1cc2nc(NC(C)=O)sc2n1C,> 200 µM,> 200 µM,
NC(=O)Nc1cc(O)ccc1N=Nc1ccc(S(=O)(=O)Nc2ccccn2)cc1,> 87.1 µM,> 87.1 µM,
O=C1C=C(Nc2ccccc2C(=O)CC(=O)C(=O)Nc2cccc([N+](=O)[O-])c2)c2ccccc2C1=O,> 20.9 µM,15.5 µM,
Cc1ccc(NC2=CC(=O)C(NO)c3ccccc32)cc1 (stereo unspecified),> 200 µM,3.89 µM,
OC1CCC[C@@H]1Sc1ccccc1 (stereo partly specified),,,inactive
O=C1CC2C(C1Nc1ccccc1)C1C(=Nc3ccccc3)C(Nc3ccccc3)=CC1N2c1ccccc1 (stereo unspecified),> 10.2 µM,> 10.2 µM,

SMILES,EC50,IC50,outcome
OC1CCCCCCCCCCC1SCCCCl (stereo unspecified),> 200 µM,> 200 µM,
O=Nc1sc(=N\O)/c(=N/O)sc1NO,> 200 µM,32.4 µM,
Cc1ccc2n(c1)cc(-c1ccc(/C=N/NC(=N)N/N=C/c3ccc(-c4cn5cc(C)ccc5[n+]4C)cc3)cc1)[n+]2C,15.5 µM,49 µM,
COC1=CC23CCCN2CCc2cc4c(cc2C3C1O)OCO4 (stereo unspecified),,,inactive
Cc1cc(S(N)(=O)=O)c(SCc2nc(N)nc(N(C)C)n2)cc1Cl,> 200 µM,> 200 µM,
Cc1c(NC(=S)NC(=O)c2ccc([N+](=O)[O-])cc2)c(=O)n(-c2ccccc2)n1C,,,inactive
C[N+](C)([O-])Cc1cccc(NC(=O)c2ccc(C(=O)Nc3cccc(C[N+](C)(C)[O-])c3)cc2)c1,> 200 µM,> 200 µM,
[N-]=[N+]=NC12CC3CC4C5CC(CC41)CC2[C@H]5C3,> 81.3 µM,> 81.3 µM,
CC(C)(C)C1=CC(=N/N=c2\scc(-c3ccccc3)n2-c2ccccc2)C=C(C(C)(C)C)C1=O,> 15.1 µM,> 15.1 µM,
O=S(=O)(O)c1cc2ccc1/C=C\c1ccc(cc1S(=O)(=O)O)N=Nc1ccc(c(S(=O)(=O)O)c1)/C=C\c1ccc(cc1S(=O)(=O)O)N=N2,,,active
CC(=O)N(C(=O)CC(=O)N/N=C\c1ccc(Br)c(N(CCC#N)CCC#N)c1)c1ccc(Cl)cc1,> 200 µM,> 200 µM,
[O-][n+]1ccccc1CCN(O)Cc1ccccc1,> 200 µM,> 200 µM,
O=C(CCCCCCCCCCc1ccccc1)c1c(O)cccc1O,> 14.8 µM,> 14.8 µM,
Oc1ccc(C2=CSC3=NCCN23)cc1,,,inactive
Cc1nc2ccncc2[nH]1,> 269 µM,191 µM,
NNC(=O)/C(NC(=O)c1ccccc1)=C(\N)c1ccc(Cl)cc1,> 282 µM,162 µM,
CC(=O)N(C[C@H]1CN(Cc2ccccc2)CC[C@H]1O)C12CC3CC(CC(C3)C1)C2,> 91.2 µM,69.2 µM,
NC(=S)N/N=C1\c2ccccc2CCC1CCC1(O)CCc2ccccc2C1=O (stereo unspecified),> 200 µM,31.6 µM,
O=C1CCCCC1CN1CCCCC1 (stereo unspecified),,,inactive
Cc1ccccc1CN1C2=NCCN2C(=O)C2=C1CCN(S(=O)(=O)c1ccc(Cl)c(S(N)(=O)=O)c1)C2,> 200 µM,93.3 µM,
COC(=O)[C@H](NC(=O)OC(C)(C)C)[C@H]1COC(C)(C)O1,> 200 µM,> 200 µM,

SMILES,EC50,IC50,outcome
O=C(CCCCCCCCc1ccc(O)cc1)c1c(O)cccc1O,,,inactive
O=C(Cc1nc2ccccc2o1)C(=O)Nc1cccc(Cl)c1,,,inactive
Cc1cc(NS(=O)(=O)c2ccc(Nc3c4ccccc4nc4c(C(=O)NCCN(C)C)ccc(Cl)c34)cc2)no1,,,inactive
N#CCC(=O)N1CCCCCCC1,> 1380 µM,> 1380 µM,
CC1(C)c2ccccc2C(=O)C12CCC(=O)CC2,> 200 µM,> 200 µM,
O=C1NC(=O)C(=Cc2ccccc2Br)C(=O)N1,> 229 µM,2.4 µM,inactive
COC(=O)[C@@H]1C=C[C@H](NC(C)=O)C1,,,inactive
CC1(C)OC2OC(COC(=O)c3ccccc3)C(=O)C2O1 (stereo unspecified),> 200 µM,13.8 µM,
O=[N+]([O-])c1ccc(COc2cccc3cccnc23)cc1,> 200 µM,2.14 µM,
C=C(C)[C@]12CC(C)C34OC(/C=C\C=C\CCCCCCCCC)(O[C@@H]1[C@@H]3[C@@H]1O[C@]1(CO)[C@@H](O)[C@]1(O)C(=O)C(C)=C[C@@H]41)O2 (stereo partly specified),> 0.2 µM,0.00389 µM,
Cc1sc2nc3n(c(=O)c2c1C)N=CN(c1ccccc1)C3,> 100 µM,> 100 µM,
Nc1c(-c2ccc(Cl)cc2Cl)[n+]([O-])c2ccccc2[n+]1[O-],,,inactive
CCOC(=O)N1C2C=CC(C2)N1C(=O)Nc1ccc(Cl)cc1 (stereo unspecified),> 200 µM,170 µM,
COC1/C=C/OC2(C)Oc3c(C)c(O)c4c(O)c(c(C=NNC(=O)c5ccc(N)cc5)c(O)c4c3C2=O)NC(=O)/C(C)=C/C=C/C(C)C(O)C(C)C(O)C(C)C(OC(C)=O)C1C (stereo unspecified),> 138 µM,107 µM,
C=C(C)[C@H]1CC[C@@]2(C)C(C1)[C@H](C)CC[C@@H]2O (stereo partly specified),,,inactive
O=C(CC(=O)n1nc(-c2ccccc2)c(N=Nc2ccccc2C(=O)O)c1-c1ccccc1)Nc1ccc(Cl)cc1,> 200 µM,77.6 µM,
Cc1cn(C2CC(N=[N+]=[N-])C(COC(=O)CCCCCCCCCc3ccccc3)O2)c(=O)[nH]c1=O (stereo unspecified),0.129 µM,110 µM,
C/C=C(/I)CBr,> 955 µM,479 µM,
CC1=NN(c2ccccc2)C(=O)C1N=Nc1ccc(S(=O)(=O)Nc2cc(C)nc(C)n2)cc1 (stereo unspecified),,,inactive
O=C(CC(C(=O)c1cccs1)c1ccsc1)c1ccc(Cl)s1 (stereo unspecified),> 200 µM,97.7 µM,
Cc1cccc2c1Oc1cc(Cl)ccc1C2NC(=O)CCN1CCCCC1 (stereo unspecified),> 200 µM,11.2 µM,

SMILES,EC50,IC50,outcome
Cc1n(-c2ccccc2)c2c([n+]1Cc1ccc([N+](=O)[O-])cc1)C(=O)c1ccccc1C2=O,> 70.8 µM,3.63 µM,
CCN(CC)c1ccc2nc3c4ccccc4c(=O)cc-3n(-c3ccccc3)c2c1,> 200 µM,4.57 µM,
Cc1cc(=O)c2c3c(ccc2[nH]1)Oc1ccccc1O3,> 7.59 µM,> 7.59 µM,
CC(C)(C)C1CCC2c3c([nH]c4ccccc34)C3C(=O)N(c4ccc(C(=O)O)cc4)C(=O)C3C2C1 (stereo unspecified),> 200 µM,14.5 µM,
CCOC(=O)C1N(S(=O)(=O)c2ccc(C)cc2)CCC12c1ccccc1NC2c1ccc(OC)c(OC)c1 (stereo unspecified),,,inactive
CN(C)CCN1CCC(Cc2ccccc2)CC1,> 200 µM,72.4 µM,
CC1=C(S(=O)c2ccc(C)cc2)CCC2(CCCCO2)O1 (stereo unspecified),> 200 µM,107 µM,
O=C(O)c1ccccc1P12(OC(=O)c3ccccc31)OC(=O)c1ccccc12,> 209 µM,170 µM,
C1CCN(CCCSSCCCN2CCCCC2)CC1,> 200 µM,91.2 µM,
Cn1nnnc1SC(F)(F)c1nc2ccccc2o1,126 µM,> 200 µM,
CC(=O)Nc1ccc(C(=O)NN2C(=O)C(Cl)C2c2cc(Br)cc(Br)c2O)cc1 (stereo unspecified),,,inactive
CCCCCCCC/C=C\CCCCCCCCN=Cc1c(O)c(O)c(C(C)C)c2cc(C)c(-c3c(C)cc4c(C(C)C)c(O)c(O)c(C=NCCCCCCCC/C=C\CCCCCCCC)c4c3O)c(O)c12,,,inactive
N#CI1OC(=O)c2ccccc21,> 200 µM,> 100 µM,
COc1ccc2nc3cccc([N+](=O)[O-])c3c(NC(C)CN(C)C)c2c1 (stereo unspecified),> 20 µM,2.29 µM,
O=C(O)c1cc(N=Nc2ccc(CCc3ccc(N=Nc4cc(C(=O)O)c(O)cc4O)cc3S(=O)(=O)O)c(S(=O)(=O)O)c2)c(O)cc1O,70.8 µM,135 µM,
CN(Cc1c(S)ccc2ccccc12)Cc1c(S)ccc2ccccc12,> 100 µM,17 µM,
COc1ccc(C(c2cc(OC)c(OC)c(OC)c2)N2C(=O)CCC2C(=O)O)cc1 (stereo unspecified),> 200 µM,33.1 µM,
COP(=O)(OC)/C(C#N)=C/c1ccco1,> 1100 µM,832 µM,
O=C1NC(=O)C(c2ccccc2)O1 (stereo unspecified),> 1410 µM,447 µM,
OCC12C=CC(C1)c1ccccc12 (stereo unspecified),> 251 µM,> 251 µM,
Cc1nc(N)nc(N)c1N1CCN(Cc2ccccc2)CC1,> 200 µM,6.92 µM,
